Source: patent US20100316677A1, “USE OF BAMBOO LEAF TOTAL FLAVONES IN THE PREPARATION OF MEDICINE AND HEALTH FOOD FOR PREVENTION AND TREATMENT OF PROSTATIC DISEASES” (ZHEJIANG UNIVERSITY (HANGZHOU) LEAF BIO-TECHNOLOGY CO., LTD., priority 2003, published 2010)

Legend:
[1] = test system: growth of the prostate and accessorial sex organs; test: growth of the prostate and the accessorial sex organs of young mice; type: in vivo, ICR young male mice; conditions: 0.5 mg/kg sc once every 3 days, 5 times
Procedure: Assign ICR young male mice, body weight 10-12 g, into groups according to their body weight, 10-11 mice in each group: (1) controlled group: water of equal volume, 0.8 mL/20 g, ig; (2) estradiol group: estradiol 0.5 mg/kg, sc, once every 3 days, for 5 times; (3) high-dose group: EOB-f01 400 mg/kg, ig; (4) moderate-dose group: EOB-f01 200 mg/kg, ig; (5) low-dose group: EOB-f01 100 mg/kg, ig. Once per day, for 14 days. On the fifteenth day, sacrifice the mice, anatomize and weigh the abdominal, side, and back parts of the prostate, and seminal vesicle, testis, and elevator ani muscle.

[2] = test system: prostatic hyperplasia caused by testosterone propionate; test: prostatic hyperplasia caused by testosterone propionate; type: in vivo, ICR mice; conditions: testosterone propionate mice, 0.5 mg/kg sc once every 3 days, 5 times
Procedure: Randomly assign ICR mice, male, body weight 18-21g, into 7 groups, 10-11 mice in each group: (1) controlled group: water of equal volume, 0.8 mL/20 g, ig; (2) model group: 0.8 mL/20 g water of equal volume, ig; (3) estradiol group: estradiol 0.5 mg/kg, sc, once every 3 days, for 5 times; (4) high-dose group: EOB-f01 400 mg/kg ig; (5) moderate-dose group: EOB-f01 200 mg/kg, ig; (6) low-dose group: EOB-f01 100 mg/kg, ig. Once per day, for 14 days. Except the controlled group (1), various groups (2)-(6) with testosterone propionate 5 mg/mL per day, sc, for 14 d. On the fifteenth day, sacrifice the mice, anatomize them, take and weigh the abdominal, side, and back parts of the prostate, and evaluate anti-hyperplasia effects of EOB-f01.

[3] = test system: swelling of ear auricle caused by xylene; test: swelling of ear auricle of mice caused by xylene; type: in vivo; conditions: 10 mg/kg ig once, blank control 11.4 ± 4.9
Procedure: Assign the mice into 5 groups according to their body weight, 10 mice in each group, as 2.1 section. Give the mice once per day through gastric irrigation (ig), for 7 days (indomethacin, given only once); in 30 min after the final dose, smear the right ear of the mice with xylene, 0.05 ml/mouse, cause inflammation, sacrifice them in 15 min, shear away their left and right ears, punch down their left and right ear slice with 9 mm trephine, and weigh them, taking the difference of weights between left and right ear slices as the swelling rate. Judge the effects compared with those of the controlled groups.

[4] = test system: swelling of ear auricle caused by croton oil; test: swelling of ear auricle of mice caused by croton oil; type: in vivo; conditions: 10 mg/kg ig once, blank control 19.8 ± 2.9
Procedure: Randomly assign mice into 5 groups, 12 mice in each group, as follows: (1) Blank-controlled group: saline of equal volume, 0.8 mL/20 g; (2) Positive-controlled group: indomethacin 10 mg/kg; (3) High-dose group: 10 mg/mL EOB-f01, 400 mg/kg; (4) moderate-dose group: 5 mg/mL EOB-f01, 200 mg/kg; (5) Low-dose group: 2.5 mg/mL EOB-f01, 100 mg/kg. The animals received the administration through gastric irrigation (ig). once per day for 7 continuous days (for indomethacin, only once); in 1 h after the final dose, smear the right ear of the mice with 2% croton oil, 0.02 ml/mouse, cause inflammation, sacrifice them after 4 h, shear away their left and right ears, punch down their left and right ear slice with 9 mm trephine, and weigh them, taking the difference of weights between left and right ear slices as the swelling rate.

[5] = test system: prostatitis caused by carrageenan; test: prostatitis caused by carrageenan (prostate weight, histopathology); type: in vivo, SD male rats; conditions: carrageenan rats
Procedure: […] Give the rats through gastric irrigation once per day, for 7 days (indomethacin, only once prior to operation), and begin the operation in 0.5 h after the final dose.
Conduct anesthesia for the rats, then fix them in supine position, shear off hair at their abdomen, and sterilized by iodine tinture; under sterilized condition, cut 1.5 cm at the center of their abdomen, expose the abdominal part of prostate, inject rats in (2)-(6) groups with 1% carrageenan saline, 0.02 mL/rat, with No. 4.5 syringe, immediately return the prostate to the abdominal cavity, add 1 drop of penicillin in the abdominal cavity, and immediately suture the abdominal cavity by two-layer ways. Replace carrageenan with saline 0.02 mL/rat, for rat in the controlled group (1), and conduct pseudo-operation. In 4 h after operation, sacrifice the rats, anatomize and separate each part of the prostate, weigh wet weight, and compare swelling extents between the dose groups and the model group. Take the abdominal part of the prostate of rats, fix with 10% formalin, dehydrate routinely, imbedded with paraffin, slice up, conduct HE staining, and observe pathological changes under a microscope.
Observation criteria for pathology of prostatic tissue from rats of each group: (1) Score of stroma swelling or blood vessel hyperemia: no stroma swelling or blood vessel hyperemia, 0; mild stroma swelling or blood vessel hyperemia, 1; moderate stroma swelling or blood vessel hyperemia, 2; severe stroma swelling or blood vessel hyperemia, 3; (2) Score of infiltration of inflammatory cells: no stroma inflammatory cells, 0; small amount of stroma inflammatory cells, 1; moderate amount of stroma inflammatory cells, 2; high amount of stroma inflammatory cells, 3; stroma diffuse inflammatory cells, 4.

With `C[C@]12CC[C@@H]3c4ccc(O)cc4CC[C@H]3[C@@H]1CC[C@@H]2O` [Estradiol, estradiol] the “Prostate weights, Back part” value ([1]; blank control 4.2 ± 1.5) was 1.1 ± 0.9 mg, the “Prostate weights, Abdominal part” value ([1]; blank control 6.7 ± 1.1) was 1.7 ± 0.5 mg and the “Prostate weights, Side part” value ([1]; blank control 9.6 ± 3.3) was 1.5 ± 1.3 mg. For the same molecule, the Seminal vesicle ([1]; organ weight, blank control 34.1 ± 11.3) was 7.3 ± 2.5 mg, the Elevator ani muscle ([1]; organ weight, blank control 42.5 ± 10.6) was 14.1 ± 3.3 mg and the Testis ([1]; organ weight, blank control 151.3 ± 28.2) was 58.0 ± 12.8 mg. The “Prostate weights, Back part” value ([2]; model 7.8 ± 1.8) was 5.1 ± 1.6 mg, the “Prostate weights, Abdominal part” value ([2]; model 11.3 ± 2.8) was 7.0 ± 1.7 mg and the “Prostate weights, Side part” value ([2]; model 23.6 ± 6.2) was 15.1 ± 2.7 mg.
For `COc1ccc2c(c1)c(CC(=O)O)c(C)n2C(=O)c1ccc(Cl)cc1` [Indomethacin, indomethacin], the “Swelling rate of ear auricle” value [3] was 6.4 ± 2.3 mg, the “Swelling rate of ear auricle” value [4] was 14.8 ± 5.1 mg and the “Prostate weights, Side part” value ([5]; 12 mg/kg ig once, model 73.3 ± 17.3) was 62.0 ± 12.3 mg. The “Prostate weights, Back part” value ([5]; 12 mg/kg ig once, model 122.1 ± 23.3) was 128.6 ± 20.9 mg, the “Prostate weights, Abdominal part” value ([5]; 12 mg/kg ig once, model 466.5 ± 79.1) was 358.1 ± 79.2 mg and the “Degree of dilation or swelling of stroma blood vessels” value ([5]; score 0-3, abdominal part of prostate, 10 mg/kg, model 2.6 ± 0.5) was 2.1 ± 2.0. For the same molecule, the “Degree of infiltration of neutrophils” value ([5]; score 0-4, abdominal part of prostate, 10 mg/kg, model 2.6 ± 1.3) was 2.2 ± 1.3.
